{"source": "patent US9573961B2", "about": "“Inhibitors of the renal outer medullary potassium channel” (Merck Sharp & Dohme Corp., priority 2012, dated 2017)", "key": {"Kir1.1 (ROMK1)": {"target": "Kir1.1 (ROMK1) (Homo sapiens (Human), UniProt P48048)", "sequence (P48048 whole entry)": "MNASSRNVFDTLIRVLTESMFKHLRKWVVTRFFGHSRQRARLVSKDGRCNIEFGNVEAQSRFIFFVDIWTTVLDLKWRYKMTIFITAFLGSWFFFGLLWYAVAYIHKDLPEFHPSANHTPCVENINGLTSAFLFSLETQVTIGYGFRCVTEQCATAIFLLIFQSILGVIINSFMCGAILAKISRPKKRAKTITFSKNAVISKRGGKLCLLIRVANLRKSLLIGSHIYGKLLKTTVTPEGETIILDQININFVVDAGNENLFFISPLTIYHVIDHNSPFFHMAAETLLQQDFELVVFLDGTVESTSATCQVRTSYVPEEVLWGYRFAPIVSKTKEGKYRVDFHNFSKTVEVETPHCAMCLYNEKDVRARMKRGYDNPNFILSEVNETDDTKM", "test": "Electrophysiology Assay (whole cell voltage clamp, IonWorks Quattro)", "assay_type": "cell-based", "settings": "Electrophysiology IC50, Chinese hamster ovary cells stably expressing Kir1.1; block during voltage step to 0 mV", "how_it_was_run": "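CHO cells stably expressing the channel, induced overnight with 1 mM sodium butyrate, were recorded in amphotericin-perforated patch mode. The test pulse was a 100 ms step to 0 mV from −70 mV, then a −70 to +70 mV ramp, applied before and after a 6 min compound incubation. Current amplitudes were compared.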"}, "hROMK (hKir1.1)": {"target": "hROMK (hKir1.1) (Homo sapiens (Human), UniProt P48048)", "sequence (P48048 whole entry)": "as above", "test": "Thallium Flux Assay (ROMK channel functional thallium flux, FLIPR-Tetra)", "assay_type": "cell-based", "how_it_was_run": "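HEK293 cells stably expressing hROMK loaded with FluxOR dye for 90 min, then incubated with compound for 30 min at 23-25 °C. Normalized to a 3 μM standard ROMK inhibitor as % fluorescence change.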"}, "[1]": {"settings": "HEK293 cells stably expressing hROMK (hKir1.1), read-out: Thallium Flux IC50"}}, "note": "pIC50: −log10 of the molar value. Like-named read-outs stand apart in the source and are kept apart here.", "data": [{"compound": "Cc1c([C@@H]2CN3CCN(C(=O)Cc4c(F)cc(-n5cnnn5)cc4F)C[C@H]3CN2)ccc(F)c1C#N", "note": "[Example 102]", "values": [{"measurement": "pIC50", "setting": "Kir1.1 (ROMK1)", "value": 6.80}, {"measurement": "pIC50", "setting": "hROMK (hKir1.1); Thallium Flux IC50", "value": 6.82}]}, {"compound": "Cc1c([C@H]2CN3CCN(C(=O)Cc4c(F)cc(-n5cnnn5)cc4F)C[C@H]3CN2)ccc(F)c1C#N", "note": "[Example 103]", "values": [{"measurement": "pIC50", "setting": "Kir1.1 (ROMK1)", "value": 7.10}, {"measurement": "pIC50", "setting": "hROMK (hKir1.1); Thallium Flux IC50", "value": 6.96}]}, {"compound": "C[C@@H]1Cc2cc([C@@H]3CN4CCN(C(=O)Cc5ccc(-n6cnnn6)cc5)C[C@H]4CN3)ccc2C(=O)O1", "note": "[Example 104]", "values": [{"measurement": "pIC50", "setting": "Kir1.1 (ROMK1)", "value": 6.42}, {"measurement": "pIC50", "setting": "hROMK (hKir1.1); [1]", "value": 6.54}]}, {"compound": "C[C@@H]1Cc2cc([C@@H]3CN4CCN(C(=O)Cc5c(F)cc(-n6cnnn6)cc5F)C[C@H]4CN3)ccc2C(=O)O1", "note": "[Example 105]", "values": [{"measurement": "pIC50", "setting": "Kir1.1 (ROMK1)", "value": 6.74}, {"measurement": "pIC50", "setting": "hROMK (hKir1.1); [1]", "value": 6.44}]}]}
